This passage reports IC50, inhibition and EC50 results from publication PMC5896266, “Development of Matrix Metalloproteinase-2 Inhibitors for Cardioprotection” (Frontiers in Pharmacology, 2018).

Where two headings read alike, the source gives them in different places. Where only a bound is given, the exact number is not on record here.

The target in assay [1] is T1, MMP-1 (Homo sapiens, UniProt P03956).
T1 sequence (P03956 100-469): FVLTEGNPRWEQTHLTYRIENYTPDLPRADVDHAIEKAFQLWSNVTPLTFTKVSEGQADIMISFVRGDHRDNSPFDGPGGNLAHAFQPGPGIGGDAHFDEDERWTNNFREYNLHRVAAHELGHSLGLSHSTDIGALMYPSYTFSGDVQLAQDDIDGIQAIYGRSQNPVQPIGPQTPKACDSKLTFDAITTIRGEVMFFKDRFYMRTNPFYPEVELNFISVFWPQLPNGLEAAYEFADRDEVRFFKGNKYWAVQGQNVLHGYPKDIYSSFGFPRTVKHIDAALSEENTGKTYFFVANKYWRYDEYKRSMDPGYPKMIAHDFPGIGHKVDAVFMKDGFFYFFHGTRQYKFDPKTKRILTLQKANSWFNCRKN
As to conditions: Figure 1, known MMP-2 inhibitors; cited from earlier work.

The subject of assay [2] is MMP-2. As to conditions: Figure 1, known MMP-2 inhibitors; cited from earlier work.
The target in assay [3] is T2, Human MMP-2 catalytic domain (Homo sapiens, UniProt P08253, DEL222-396).
T2 construct: Human MMP-2 catalytic domain (residues 110-221, 397-455); made in house
T2 sequence (P08253 with tags, fused parts or gaps DEL222-396 limits assumed): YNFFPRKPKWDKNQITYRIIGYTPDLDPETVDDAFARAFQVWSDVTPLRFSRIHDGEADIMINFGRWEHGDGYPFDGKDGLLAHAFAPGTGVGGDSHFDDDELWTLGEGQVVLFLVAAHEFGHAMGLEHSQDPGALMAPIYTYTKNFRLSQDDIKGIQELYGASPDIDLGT
Briefly: Fluorometric MMP-2 inhibition assay (MTS), catalytic domain. It is filed as biochemical. Here is the method:
In vitro MMP-2 activity was then measured, using a fluorometric assay in a 384 well format. Human MMP-2 catalytic domain (residues 110-221, 397-455) (Feng et al., [2000]) was expressed in E. coli in form of inclusion bodies. The protein was refolded and then purified by means of Ni-NTA affinity and anion exchange chromatography. Inhibition assays were carried out in 50 mM Tris, 5 mM CaCl2, 300 mM NaCl, 20 μM ZnSO4, pH = 7.5 buffer. For inhibition studies the catalytic domain of the enzyme was pre-incubated with varying amount of inhibitor for 30 min. […] After 1 h incubation at 37°C the fluorescence was detected using a Wallac 1420 Victor2 microplate reader at 320 nm/405 nm Ex/Em wavelength. As an alternative substrate we also used 5-FAM-Pro-Leu-Gly-Leu-Dap(QXL™ 520)-Ala-Arg-NH2, where the fluorescence was detected at 485 nm/520 nm. For each inhibitor candidate, the percentage of inhibition was determined in duplicate experiments at six inhibitor concentrations, chosen to observe a 5–95% range of inhibition.
Since hydroxamic acids are reported as the primary zinc-binding motif, we intended to select such a library from the AMRI 200,000 member non-exclusive compound repository as a starting point of our drug discovery efforts. Since only a few compounds were available in the repository as hydroxamic acids and the conversion of acids to hydroxamic acids were not applicable to HT parallel synthesis, we decided first to select free acids from the AMRI's compound collection. […] The selected acids were screened in a fluorescent assay using a recombinant human MMP-2 catalytic fragment and a synthetic peptide substrate. […] The hydroxamic acid pairs of the previously measured acids were then tested.

In assay [4] the target is MMP-13 (Homo sapiens, UniProt P45452). Briefly: MMP-13 inhibition (inhibitory profile). As to conditions: Table 2. It is filed as biochemical. As for the experimental part:
(§1) The compounds were measured for MMP-1, 2, 9, 13 to determine their inhibitory profile. Efficiency Index amplifies the two major required effects, selectivity against MMP-1 and the inhibitory activity.

Assay [5] deals with T1, MMP-1. The experiment in a line: MMP-1 inhibition (inhibitory profile). It is filed as biochemical. As to conditions: Table 2. As for the experimental part: as §1
For assay [6], the target named is T3, MMP-2 enzyme isolated from rat heart (Rattus norvegicus, UniProt P33436).
T3 construct: we used full-length, active MMP-2 enzymes isolated from healthy young adult rat hearts; from tissue; host or cells: rat heart homogenate (healthy young adult rats)
T3 sequence (P33436 110-662): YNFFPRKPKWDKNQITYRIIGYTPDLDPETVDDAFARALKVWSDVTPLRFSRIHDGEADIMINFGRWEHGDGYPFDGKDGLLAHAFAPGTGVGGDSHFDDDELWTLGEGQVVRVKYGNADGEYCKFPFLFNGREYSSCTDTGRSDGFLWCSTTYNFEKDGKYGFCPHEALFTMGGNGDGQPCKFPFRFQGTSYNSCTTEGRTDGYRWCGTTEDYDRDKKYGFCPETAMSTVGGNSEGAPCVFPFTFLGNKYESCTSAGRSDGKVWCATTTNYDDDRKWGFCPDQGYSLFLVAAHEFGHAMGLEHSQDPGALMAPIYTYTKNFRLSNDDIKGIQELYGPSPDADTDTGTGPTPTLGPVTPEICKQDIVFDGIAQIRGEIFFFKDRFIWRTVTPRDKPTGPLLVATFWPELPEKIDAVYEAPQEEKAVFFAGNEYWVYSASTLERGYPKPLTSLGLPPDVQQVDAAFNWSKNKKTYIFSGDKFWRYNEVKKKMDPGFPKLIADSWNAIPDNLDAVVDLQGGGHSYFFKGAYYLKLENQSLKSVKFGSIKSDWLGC
Briefly: Gelatin zymography on cardiac MMP-2. As to conditions: for inhibition at 100 µM: cardiac MMP-2, gelatin zymography, read-out: Inhibition (%)±SEM at 100 μM final MMP inhibitor concentration; for EC50: concentration labelled EC50 in Supplementary Figure 4, doses calculated according to IC doses in vitro. It is filed as biochemical. As for the experimental part:
Gelatin zymography was performed as described previously (Kupai et al., [2010]; Bencsik et al., [2017]). MMP-2 was isolated from rat heart homogenates as follows: 50 μg protein/lane were loaded and separated by electrophoresis under non-reducing conditions on an 8% SDS-polyacrylamide gels copolymerized with 2 mg/ml gelatin from porcine skin (Sigma-Aldrich; St. Louis, MO). After electrophoresis, gels were washed in 2.5% Triton-X 100 with gentle agitation and then incubated for 20 h at 37°C in zymography development buffer (50 mM Tris-HCl, pH 7.5, containing 5 mM CaCl2, 200 mM NaCl) in the presence or abscence of the MMP inhibitor compounds. Zymographic gels were stained in a 0.05% Coomassie Brilliant Blue R-250 solution followed by destaining, and then zymograms were scanned. MMP activity was detected as a colorless transparent zone on a blue background and the clear bands in the gel were quantified by densitometry using the Quantity One software (Bio-Rad, Hercules, CA). The obtained density values were measured and percentage of inhibition values were then calculated.
To confirm the MTS screen results, we tested the potential MMP inhibitor molecules on MMP-2 enzyme isolated from rat heart in vitro. Therefore, we applied the MMPIs at 1 and 100 μM final concentration in the enzyme's development buffer (Table 3).
After the chemical optimization of the novel MMP inhibitor lead candidates, we determined their IC50 values by using gelatin zymography. During zymographic analysis, we used full-length, active MMP-2 enzymes isolated from healthy young adult rat hearts. Subsequently, the cardio-cytoprotective effects of the selected candidates having the lowest IC50 values to MMP-2 were tested in cultured neonatal cardiac myocytes subjected to simulated I/R injury. Cardiac myocyte cell culture assay allowed a relatively high throughput biological efficacy testing (Gorbe et al., [2010]) of the selected lead candidates in several dose ranges at different levels of inhibition of MMP-2 activity.

For assay [7], the target named is MMP-9 (Homo sapiens, UniProt P14780). The experiment in a line: MMP-9 inhibition (inhibitory profile). As to conditions: Table 2. The assay is classed as biochemical. As for the experimental part:
as §1

The mark [8] stands for this setting: Table 1, acids vs hydroxamic acids, catalytic fragment.

MMP-9, sequence (P14780 94-707, species assumed): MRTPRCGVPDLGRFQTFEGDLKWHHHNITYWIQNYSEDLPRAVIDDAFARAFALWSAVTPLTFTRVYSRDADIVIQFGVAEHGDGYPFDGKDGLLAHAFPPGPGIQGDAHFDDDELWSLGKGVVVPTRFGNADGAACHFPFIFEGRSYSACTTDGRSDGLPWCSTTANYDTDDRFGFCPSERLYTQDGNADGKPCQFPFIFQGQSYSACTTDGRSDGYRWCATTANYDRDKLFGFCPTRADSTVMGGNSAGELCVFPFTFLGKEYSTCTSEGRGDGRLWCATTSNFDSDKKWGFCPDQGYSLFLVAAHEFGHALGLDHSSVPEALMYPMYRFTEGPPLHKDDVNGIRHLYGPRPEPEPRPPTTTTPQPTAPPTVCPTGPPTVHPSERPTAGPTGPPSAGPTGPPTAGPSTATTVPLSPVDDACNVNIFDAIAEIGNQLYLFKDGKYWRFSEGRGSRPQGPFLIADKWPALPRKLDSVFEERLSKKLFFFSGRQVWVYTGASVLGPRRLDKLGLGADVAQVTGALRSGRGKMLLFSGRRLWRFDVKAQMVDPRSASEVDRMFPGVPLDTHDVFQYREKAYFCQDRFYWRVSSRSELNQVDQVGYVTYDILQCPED

What is called IC50 is the concentration needed to halve the response being measured. As for `CC1(C)OCC(C(CS(=O)(=O)c2ccc(Oc3ccc(OC(F)(F)F)cc3)cc2)N(O)C=O)O1` (stereo not drawn) [ABT-518], the IC50 in assay [1] is 8.9 µM; in assay [2] it was 0.0008 µM.
Turning to `O=C(NO)c1csc(CN(Cc2ccc(F)cc2)Cc2ccc(OCc3ccccc3)cc2)n1` [AMRI-101H], the concentration for half-maximal inhibition (IC50) in assay [3] (setting [8]) stood at 12 µM.
With `O=C(O)c1csc(CN(Cc2cccc(Cl)c2)Cc2cccc(C(F)(F)F)c2)n1` [AMRI-102A], the IC50 in assay [3] (setting [8]) worked out at 6.2 µM.
`O=C(NO)c1csc(CN(Cc2cccc(Cl)c2)Cc2cccc(C(F)(F)F)c2)n1` [AMRI-102H] displayed an IC50 in assay [3] (setting [8]) of 11 µM.
In assay [3] (setting [8]), `O=C(O)c1csc(CN(CCC(c2ccccc2)c2ccccc2)Cc2ccccc2F)n1` [AMRI-103A] had an IC50 of 7.6 µM.
On the same count and under the same terms, the same measure for `O=C(NO)c1csc(CN(CCC(c2ccccc2)c2ccccc2)Cc2ccccc2F)n1` [AMRI-103H]: 17.6 µM.
On to `O=C(O)c1csc(CN(Cc2ccc(OCc3ccccc3)cc2)Cc2cccc(F)c2)n1` [MMPI-1133], for which the IC50 in assay [4] is 4.7 µM; in assay [3] (Table 2) it was 25 µM; in assay [5], 6.8 µM. Further, in assay [6], the inhibition at 100 µM was 11.1 ± 1.58%.
With `O=C(O)C(c1ccccc1)N(Cc1ccc(OCc2ccccc2)cc1)Cc1cccc(F)c1` (stereo not drawn) [MMPI-1140], the IC50 turned out to be 2.6 µM in assay [4], 39 µM in assay [7], 20 µM in assay [3] (Table 2) and 12 µM in assay [5]. For the same molecule, in assay [6], the inhibition at 100 µM stood at 81.1 ± 3.88%.
Consider `O=C(O)c1csc(CN(Cc2ccc(OCc3ccccc3)cc2)C(c2ccccc2)c2ccccc2)n1` [MMPI-1155], for which the IC50 in assay [4] was 1.76 µM; in assay [7], 10 µM; in assay [3] (Table 2) it was 25 µM; in assay [5], 26 µM. Besides, in assay [6], the inhibition at 100 µM turned out to be 47 ± 19.1%.
A word on the EC50: it is the midpoint of the concentration-response curve. As to `O=C(O)c1csc(CN(Cc2ccc(F)cc2)Cc2ccc(OCc3ccccc3)cc2)n1` [MMPI-1157], the IC50 worked out at 1.6 µM in assay [4], 15 µM in assay [7] and 3.4 µM in assay [3] (setting [8]). Besides, in assay [6], the inhibition at 100 µM turned out to be 100%. The EC50 in assay [6] was 18 µM.
Turning to `O=C(O)c1c[nH]c(CN(Cc2ccc(F)cc2)Cc2ccc(OC(c3ccccc3)c3ccccc3)cc2)n1` [MMPI-1245], the IC50 in assay [4] is 0.28 µM; in assay [7] it was 8 µM; in assay [3] (Table 2) it was 35 µM; in assay [5], 16 µM. Also, the inhibition at 100 µM in assay [6] came out at 100%.
Regarding `Cc1ccc(CN(Cc2ccc(OCc3ccccc3)cc2)Cc2nc(C(=O)O)c[nH]2)cc1` [MMPI-1247], the IC50 in assay [4] is 3.3 µM; in assay [7], 100 µM; in assay [3] (Table 2) it was 15 µM; in assay [5], 33 µM. The inhibition at 100 µM in assay [6] is 100%. Also, in assay [6], the EC50 is 16 µM.
`O=C(O)c1csc(CN(Cc2ccc(F)cc2)Cc2ccc(OCc3ccncc3)cc2)n1` [MMPI-1248]: the IC50 was 1.24 µM in assay [4], 8.8 µM in assay [7], 8 µM in assay [3] (Table 2) and 47 µM in assay [5]. The inhibition at 100 µM in assay [6] came out at 100%. The 50% effective concentration (EC50) in assay [6] was 9 µM.
For the molecule `O=C(O)c1csc(CN(Cc2ccncc2)Cc2ccc(OCc3ccccc3)cc2)n1` [MMPI-1252], the IC50 is 1.5 µM in assay [4], no less than 500 µM in assay [7], 54 µM in assay [3] (Table 2) and 115 µM in assay [5]. The inhibition at 100 µM in assay [6] came out at 100%.
`O=C(O)c1csc(CN(Cc2ccc(OCc3ccccc3)cc2)Cc2cccnc2)n1` [MMPI-1253]: the IC50 is 8 µM in assay [4], no less than 500 µM in assay [7], 90 µM in assay [3] (Table 2) and 240 µM in assay [5]. The inhibition at 100 µM in assay [6] stood at 100%.
With `O=C(O)c1csc(CN(Cc2ccc(F)cc2)Cc2ccc(-c3ccccc3)cc2)n1` [MMPI-1254], the IC50 was 3 µM in assay [4], 20 µM in assay [7], 30 µM in assay [3] (Table 2) and 17 µM in assay [5]. Further, the inhibition at 100 µM in assay [6] worked out at 100%. Also, the concentration for a half-maximal effect (EC50) in assay [6] is 32 µM.
On to `O=C(O)c1csc(CN(Cc2ccc(F)cc2)Cc2ccc(OCc3cccnc3)cc2)n1` [MMPI-1260], for which the IC50 in assay [4] stood at 2.5 µM; in assay [7] it was 37 µM; in assay [3] (Table 2), 5.7 µM; in assay [5], 51 µM. For the same molecule, in assay [6], the inhibition at 100 µM came out at 100%. In addition, the EC50 in assay [6] is 17.7 µM.
As for `CC(C)C(NS(=O)(=O)c1ccc(-c2ccc(Br)cc2)cc1)C(=O)O` (stereo not drawn) [PD 166793], the IC50 in assay [2] was […].
